Like-named read-outs stand apart in the source and are kept apart here.
Columns and labels:
Thromboxane A2 Synthase = molecular target: T1, Thromboxane A2 Synthase (Rattus norvegicus, UniProt P49430); test: Inhibitory effect on thromboxane A2 synthase: TXB2 in rat platelet rich plasma; type: cell-based, rats; conditions: 10 μmol/l, rat PRP
T1 construct: centrifuged at 1,300 rpm for 7 minutes to obtain platelet rich plasma (PRP); from tissue; host or cells: platelet rich plasma (washed platelets) from the abdominal aorta blood of Sprague-Dawley rats
T1 sequence (P49430 1-533): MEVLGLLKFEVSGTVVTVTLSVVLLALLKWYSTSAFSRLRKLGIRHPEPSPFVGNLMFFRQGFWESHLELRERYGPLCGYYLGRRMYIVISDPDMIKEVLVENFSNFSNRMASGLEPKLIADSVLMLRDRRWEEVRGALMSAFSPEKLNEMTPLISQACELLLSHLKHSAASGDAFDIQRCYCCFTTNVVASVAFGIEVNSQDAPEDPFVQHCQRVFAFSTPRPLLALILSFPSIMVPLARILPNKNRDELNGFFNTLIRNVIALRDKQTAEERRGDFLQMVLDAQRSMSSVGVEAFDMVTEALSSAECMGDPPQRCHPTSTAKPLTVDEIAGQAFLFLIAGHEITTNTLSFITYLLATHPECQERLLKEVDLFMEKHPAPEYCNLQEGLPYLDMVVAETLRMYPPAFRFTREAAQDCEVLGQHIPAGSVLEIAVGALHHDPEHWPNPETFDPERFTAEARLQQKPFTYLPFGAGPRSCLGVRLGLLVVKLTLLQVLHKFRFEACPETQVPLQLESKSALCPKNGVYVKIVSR
Experimental: Eight week old Sprague-Dawley male rats were used in this example. The rats were anesthetized with pentobarbital sodium. The blood was collected from the abdominal aorta using a heparinized syringe, and centrifuged at 1,300 rpm for 7 minutes to obtain platelet rich plasma (PRP). PRP was suspended in an equivalent volume of a buffer containing 25 mmol/l Tris-HCl, 130 mmol/l sodium chloride and 0.3 mmol/l EDTA (pH 7.4)(buffer A), followed by centrifugation at 4° C., at 1,500 rpm for 5 minutes. This procedure was repeated twice, and PRP was finally suspended in a buffer containing 25 mmol/l Tris-HCl, 130 mmol/l, 0.1% glucose and 0.1% albumin (pH7.4)(buffer B).
5×10^6 cells/mm^3 PRP preparation in buffer B was divided into each well of a 96-well plate in an amount of 150 μl/well. Each test substance was prepared at a final concentration of 10 μmol/l and added to the PRP preparation in an amount of 50 μl/well. Immediately after addition of the test substance, 5 μl of an aggregation-inducing agent, type IV collagen (1 mg/ml) or arachidonic acid (50 mmol/l), was added and incubated for 10 minutes. 20 μl of an EDTA-indomethacin solution was added to the each well to stop the reaction. The supernatant was assayed for thromboxane B2 (TXB2), stable metabolite of thromboxane A2 (TXA2), using a TXB2 measurement kit (Cayman).

IL-12 = test: Inhibition of IL-12 production by mouse peritoneal macrophages (ELISA); type: cell-based, mice; conditions: Macrophage, read-out: Inhibitory rate (%) IL-12; for inhibition at 10 µM: 10 μM/L; for inhibition at 10 µg/mL: 10 μg/ml; for inhibition at 50 µg/mL: 50 μg/ml; for inhibition at 100 µg/mL: 100 μg/ml; for inhibition at 1 µg/mL: 1 μg/ml; for inhibition at 5 µg/mL: 5 μg/ml
Experimental: (§1) C57BL/6CrSlc male mice were intraperitoneally injected with 2.0 ml of 3% Brewer tioglycolate medium. Three days later, macrophages were collected from the abdominal cavity with 5.0 ml Hank's balanced salt solution, and then equally divided into each well of a 48-well plate using RPMI 1640 medium supplemented with 10% FBS (Fetal Bovine Serum), followed by incubation in a CO2 incubator for 1 hour. After the macrophages adhered to the walls of the plate, they were incubated for 48 hours in the presence of a test compound with different concentrations. Following the incubation, the supernatant was collected from each well, assayed for IL-6, IL-10 and L-12 by ELISA to determine inhibitory rates against the production of these interleukins.

IL-6 = test: Inhibition of IL-6 production by mouse peritoneal macrophages (ELISA); type: cell-based, mice; conditions: Macrophage, 48 hours, read-out: Inhibitory rate (%) IL-6; for inhibition at 10 µg/mL: 10 μg/ml; for inhibition at 50 µg/mL: 50 μg/ml; for inhibition at 100 µg/mL: 100 μg/ml; for inhibition at 1 µg/mL: 1 μg/ml; for inhibition at 5 µg/mL: 5 μg/ml
Experimental: as §1

[1] = tested on: Rats with Minimal Change Nephrosis; test: Inhibitory effects on urinary proteins in rats with minimal change nephrosis (Puromycin Aminonucleoside); type: in vivo; conditions: S.D. male rats, PA 50 mg/kg i.v., test drug 2 mg/kg/day from day 6 to day 11, assayed at day 11
Experimental: Six week old S.D. male rats were intravenously injected with Puromycin Aminonucleoside (PA; SIGMA)at a dose of 50 mg/kg so as to develop nephrosis. Six days after PA treatment, the rats were administered with a test drug at a dose of 2 mg/kg/day by day 11. Each rat was assayed for an excreted urinary protein level at day 11 to determine an inhibitory rate.

IL-10 = test: Inhibition of IL-10 production by mouse peritoneal macrophages (ELISA); type: cell-based, mice; conditions: Macrophage, 48 hours, read-out: Inhibitory rate (%) IL-10; for inhibition at 10 µg/mL: 10 μg/ml; for inhibition at 50 µg/mL: 50 μg/ml; for inhibition at 100 µg/mL: 100 μg/ml; for inhibition at 1 µg/mL: 1 μg/ml; for inhibition at 5 µg/mL: 5 μg/ml
Experimental: as §1

[2] = arachidonic acid, 10 minutes, read-out: TXB2 induced by arachidonic acid (Inhibitory rate; %)
[3] = type IV collagen, 10 minutes, read-out: TXB2 induced by collagen (Inhibitory rate; %)
[4] = summary of Table 3, read-out: inhibitory activity against TXA2 production mediated by collagen or arachidonate

## O=C(/C=C/c1ccccc1OCC(=O)NO)NCc1cccnc1 [Example 53]
Thromboxane A2 Synthase; [2]
  inhibition at 10 µM: 56%
Thromboxane A2 Synthase; [3]
  inhibition at 10 µM: 43%
Thromboxane A2 Synthase; [4]
  inhibition at 10 µM: ≥ 50%

## O=C(O)COc1ccccc1/C=C/C(=O)NCc1cccnc1 [Example 37]
Thromboxane A2 Synthase; [2]
  inhibition at 10 µM: 26%
Thromboxane A2 Synthase; [3]
  inhibition at 10 µM: 26%

## CCOC(=O)COc1ccc(/C=C(\C#N)C(=O)NCc2cccnc2)cc1 [Example 81, Ethyl [4-[2-Cyano-2-[N-(3-pyridylmethyl)carbamoyl]ethenyl]phenoxy]acetate]
IL-12; 48 hours
  inhibition at 10 µM: 41%

## Cl.O=C(O)COc1ccc(/C=C/C(=O)NCc2cccnc2)cc1 [Example 36, [4-[(E)-2-[N-(3-pyridylmethyl)carbamoyl]ethenyl]phenoxy]acetic acid hydrochloride]
IL-6
  inhibition at 10 µg/mL: 53.1%
  inhibition at 50 µg/mL: 56.7%
  inhibition at 100 µg/mL: 21.7%
IL-12; 48 hours
  inhibition at 10 µg/mL: 52.1%
  inhibition at 50 µg/mL: 82.1%
  inhibition at 100 µg/mL: 64%
[1]
  Inhibitory rate (%) of excreted urinary protein level: 29%
IL-10
  inhibition at 10 µg/mL: -45.8%
  inhibition at 50 µg/mL: -13%
  inhibition at 100 µg/mL: 22.2%

## CNC(=S)COc1ccccc1/C=C/C(=S)NCc1cccnc1 [Example 65, (E)-3-[2-[[N-(Methyl)thiocarbamoyl]methoxy]phenyl]-N-(3-pyridylmethyl)-2-propenoic Acid Thioamide]
Thromboxane A2 Synthase; [2]
  inhibition at 10 µM: 23%
Thromboxane A2 Synthase; [3]
  inhibition at 10 µM: 12%

## COC(=O)COc1ccc(/C=C/C(=O)NCc2ccccn2)cc1 [Example 29]
IL-6
  inhibition at 10 µg/mL: -9.5%
IL-12; 48 hours
  inhibition at 10 µg/mL: 37.6%
IL-10
  inhibition at 10 µg/mL: -25.7%

## O=C(O)CCc1ccc(/C=C/C(=O)NCCc2ccccn2)cc1 [Example 79]
IL-12; 48 hours
  inhibition at 10 µM: 43%

## CN(Cc1cccnc1)C(=O)/C=C/c1ccc(OCC(=O)O)cc1 [Example 72]
Thromboxane A2 Synthase; [2]
  inhibition at 10 µM: 61%
Thromboxane A2 Synthase; [3]
  inhibition at 10 µM: 46%
Thromboxane A2 Synthase; [4]
  inhibition at 10 µM: ≥ 50%

## COC(=O)CC(O)c1ccc(/C=C/C(=O)NCc2cccnc2)cc1 (centres unmarked) [Example 80, methyl 3-hydroxy-3-[4-[2-[N-(3-pyridylmethyl)carbamoyl]ethenyl]phenyl]propionate]
IL-12; 48 hours
  inhibition at 10 µM: 52.3%

## CN(C)C(=O)COc1ccc(/C=C(\C#N)C(=O)NCc2cccnc2)cc1 [Example 84]
IL-12; 48 hours
  inhibition at 10 µM: 38.9%

## NC(=O)COc1ccc(/C=C/C(=O)NCc2cccnc2)cc1 [Example 41]
Thromboxane A2 Synthase; [2]
  inhibition at 10 µM: 36%
Thromboxane A2 Synthase; [3]
  inhibition at 10 µM: 14%

## COC(=O)CCc1ccc(/C=C/C(=O)NCCc2ccccn2)cc1 [Example 78]
IL-12; 48 hours
  inhibition at 10 µM: 49.2%

## COC(=O)/C=C/c1ccc(/C=C/C(=O)NCc2cccnc2)cc1 [Example 76]
IL-12; 48 hours
  inhibition at 10 µM: 50%

## O=C(O)COc1ccc(/C=C/C(=O)NCCc2ccccn2)cc1 [Example 73]
Thromboxane A2 Synthase; [2]
  inhibition at 10 µM: 23%
Thromboxane A2 Synthase; [3]
  inhibition at 10 µM: 47%

## COC(=O)COc1ccc(/C=C/C(=O)NCCc2ccccn2)cc1 [Example 16]
IL-6
  inhibition at 1 µg/mL: 26.1%
  inhibition at 5 µg/mL: 41.3%
  inhibition at 10 µg/mL: 79%
IL-12; 48 hours
  inhibition at 1 µg/mL: 31.4%
  inhibition at 5 µg/mL: 47.4%
  inhibition at 10 µg/mL: 40.3%
[1]
  Inhibitory rate (%) of excreted urinary protein level: 42%
IL-10
  inhibition at 1 µg/mL: 49.9%
  inhibition at 5 µg/mL: 50.1%
  inhibition at 10 µg/mL: 34.9%

## CCOC(=O)COc1ccc(/C(C)=C/C(=O)NCc2cccnc2)cc1 [Example 85, Ethyl [4-[(E)-1-Methyl-2-[N-(3-Pyridylmethyl)carbamoyl]ethenyl]phenoxy]acetate]
IL-12; 48 hours
  inhibition at 10 µM: 47.4%

## O=C(/C=C/c1ccc(OC(F)(F)C(=O)O)cc1)NCc1cccnc1 [Example 74]
IL-12; 48 hours
  inhibition at 10 µM: 51.1%

## CCOC(=O)COc1ccc(/C=C/C(=O)N(C)Cc2cccnc2)cc1 [Example 2, Ethyl [4-[(E)-2-[N-Methyl-N-(3-pyridylmethyl)carbamoyl]ethenyl]phenoxy]-acetate]
IL-6
  inhibition at 10 µg/mL: 58.8%
  inhibition at 50 µg/mL: 78.9%
  inhibition at 100 µg/mL: 88%
IL-12; 48 hours
  inhibition at 10 µg/mL: 35%
  inhibition at 50 µg/mL: 63.8%
  inhibition at 100 µg/mL: 65.4%
IL-10
  inhibition at 10 µg/mL: 27.8%
  inhibition at 50 µg/mL: 51.4%
  inhibition at 100 µg/mL: 50%

## N#C/C(=C\c1ccc(OCC(=O)O)cc1)C(=O)NCc1cccnc1 [Example 83, [4-[2-Cyano-2-[N-(3-pyridylmethyl)carbamoyl]ethenyl]phenoxy]acetic Acid]
IL-12; 48 hours
  inhibition at 10 µM: 40.9%

## COC(=O)COc1ccc(/C=C/C(=O)NCc2cccnc2)cc1 [Example 7, methyl [4-[(E)-2-[N-(3-pyridylmethyl)carbamoyl]ethenyl]phenoxy]acetate]
IL-6
  inhibition at 1 µg/mL: 13.5%
  inhibition at 5 µg/mL: 31.5%
  inhibition at 10 µg/mL: 32.5%
IL-12; 48 hours
  inhibition at 1 µg/mL: 28.4%
  inhibition at 5 µg/mL: 40.1%
  inhibition at 10 µg/mL: 52.5%
[1]
  Inhibitory rate (%) of excreted urinary protein level: 50%
IL-10
  inhibition at 1 µg/mL: 17.9%
  inhibition at 5 µg/mL: 1.3%
  inhibition at 10 µg/mL: 25.4%

## N#C/C(=C\c1ccc(OCC(=O)O)cc1)C(=O)NCc1cccnc1 [Example 82, Sodium [4-[2-Cyano-2-[N-(3-pyridylmethyl)carbamoyl]ethenyl]phenoxy]acetate]
IL-12; 48 h
  inhibition at 10 µM: 30.7%

## COC(=O)COc1ccc(/C=C/C(=O)NCCc2ccncc2)cc1 [Example 30]
IL-6
  inhibition at 10 µg/mL: 58.8%
IL-12; 48 hours
  inhibition at 10 µg/mL: 71.7%
IL-10
  inhibition at 10 µg/mL: -38.9%

## O=C(O)CNc1ccc(/C=C/C(=O)NCc2cccnc2)cc1 [Example 88, [[4-[(E)-2-[N-(3-Pyridylmethyl)carbamoyl]ethenyl]phenyl]amino]acetic Acid]
IL-12; 48 hours
  inhibition at 10 µM: 26.4%

## CCOC(=O)COc1ccc(/C=C/C(=O)NCCc2cccnc2)cc1 [Example 10]
IL-6
  inhibition at 10 µg/mL: 61.2%
  inhibition at 50 µg/mL: 63.5%
  inhibition at 100 µg/mL: 61.6%
IL-12; 48 hours
  inhibition at 10 µg/mL: 30.3%
  inhibition at 50 µg/mL: 27.8%
  inhibition at 100 µg/mL: 35%
[1]
  Inhibitory rate (%) of excreted urinary protein level: 56%
IL-10
  inhibition at 10 µg/mL: 29.5%
  inhibition at 50 µg/mL: 33.3%
  inhibition at 100 µg/mL: 27.8%
